Source: US8124793B2, “Derivatives of ethylene methanedisulfonate as cancer chemotherapeutic agents” (priority 2007, dated 2012)

What was measured:
Assay type in all cases: cell-based
[1] = test system: HS 578T; experiment: NCI screen, growth of human tumor cells: Breast Cancer HS 578T; details: H5-578T
Procedure, shortened: (§1)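 Percent-growth read-out from the NCI cancer cell screen; data annotated by cancer type and molar concentration, ≥60 points per compound.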

[2] = test system: PC-3; experiment: NCI screen, growth of human tumor cells: Prostate Cancer PC-3; details: PC-3, 10^−4 molar
Procedure: (§2) In the NCI screening process, each compound was tested and described by a minimum of 60 data points. The test data include, but are not limited to the type of cancer, the molar concentration used in the screen, and the percent growth of the cancer. In some cases, NMR and elemental analysis were used for structural assignment.

[3] = test system: U-251; experiment: NCI screen, growth of human tumor cells: CNS Cancer U-251; details: U251, 10^−4 molar
Procedure, shortened: as §1

[4] = test system: MALME-3M; experiment: NCI screen, growth of human tumor cells: Melanoma MALME-3M; details: MALME-3M
Procedure, shortened: as §1

[5] = test system: HT29; experiment: NCI screen, growth of human tumor cells: Colon Cancer HT29; details: HT-29, 10^−4 molar
Procedure, shortened: as §1

[6] = test system: OVCAR-3; experiment: NCI screen, growth of human tumor cells: Ovarian Cancer OVCAR-3; details: OVCAR-3, 10^−4 molar
Procedure, shortened: as §1

[7] = test system: NCI-H23; experiment: NCI screen, growth of human tumor cells: Non-Small Cell Lung NCI-H23; details: NCI-H23, 10^−4 molar
Procedure, shortened: as §1

[8] = test system: OVCAR-4; experiment: NCI screen, growth of human tumor cells: Ovarian Cancer OVCAR-4; details: OVCAR-4 (Ovarian Cancer), 10^−4 molar
Procedure, shortened: as §1

[9] = test system: SNB-75; experiment: NCI screen, growth of human tumor cells: CNS Cancer SNB-75
Procedure, shortened: as §1

[10] = test system: M14; experiment: NCI screen, growth of human tumor cells: Melanoma M14; details: M14, 10^−4 molar
Procedure, shortened: as §1

[11] = test system: EKVX; experiment: NCI screen, growth of human tumor cells: Non-Small Cell Lung EKVX; details: EKVX, 10^−4 molar
Procedure, shortened: as §1

[12] = test system: SK-MEL-2; experiment: NCI screen, growth of human tumor cells: Melanoma SK-MEL-2; details: SK-MEL-2, 10^−4 molar
Procedure, shortened: as §1

[13] = test system: HOP-92; experiment: NCI screen, growth of human tumor cells: Non-Small Cell Lung HOP-92; details: HOP-92 (Non-Small Cell Lung), 10^−4 molar
Procedure, shortened: as §1

[14] = test system: CCRF-CEM; experiment: NCI screen, growth of human tumor cells: Leukemia CCRF-CEM; details: CCRF-CEM
Procedure, shortened: as §1

[15] = test system: SK-MEL-5; experiment: NCI screen, growth of human tumor cells: Melanoma SK-MEL-5; details: SK-MEL-5, 10^−4 molar
Procedure, shortened: as §1

[16] = test system: UACC-62; experiment: NCI screen, growth of human tumor cells: Melanoma UACC-62; details: UACC-62, 10^−4 molar
Procedure, shortened: as §1

[17] = test system: SF-268; experiment: NCI screen, growth of human tumor cells: CNS Cancer SF-268
Procedure, shortened: as §1

[18] = test system: CAKI-1; experiment: NCI screen, growth of human tumor cells: Renal Cancer CAKI-1; details: CAKI-1, 10^−4 molar
Procedure, shortened: as §1

[19] = test system: AS49/ATCC; experiment: NCI screen, growth of human tumor cells: Non-Small Cell Lung AS49/ATCC; details: A549/ATCC, 10^−4 molar
Procedure, shortened: as §1

[20] = test system: BT-549; experiment: NCI screen, growth of human tumor cells: Breast Cancer BT-549; details: BT-549 (Breast Cancer), 10^−4 molar
Procedure, shortened: as §1

[21] = test system: SF-295; experiment: NCI screen, growth of human tumor cells: CNS Cancer SF-295
Procedure, shortened: as §1

[22] = test system: NCI-H460; experiment: NCI screen, growth of human tumor cells: Non-Small Cell Lung NCI-H460; details: NCI-H460 (Non-Small Cell Lung), 10^−4 molar
Procedure, shortened: as §1

[23] = test system: HCT-116; experiment: NCI screen, growth of human tumor cells: Colon Cancer HCT-116; details: HCT-116, 10^−4 molar
Procedure, shortened: as §1

[24] = test system: HCC-2998; experiment: NCI screen, growth of human tumor cells: HCC-2998 (listed under Non-Small Cell Lung); details: HCC-2998, 10^−4 molar
Procedure, shortened: as §1

[25] = test system: SR; experiment: NCI screen, growth of human tumor cells: Leukemia SR; details: SR
Procedure, shortened: as §1

[26] = test system: DU-145; experiment: NCI screen, growth of human tumor cells: Prostate Cancer DU-145; details: DV-145, 10^−4 molar
Procedure, shortened: as §1

[27] = test system: KM12; experiment: NCI screen, growth of human tumor cells: Colon Cancer KM12; details: KM12, 10^−4 molar
Procedure, shortened: as §1

[28] = test system: OVCAR-5; experiment: NCI screen, growth of human tumor cells: Ovarian Cancer OVCAR-5; details: OVCAR-5, 10^−4 molar
Procedure, shortened: as §1

[29] = test system: RPMI-8226; experiment: NCI screen, growth of human tumor cells: Leukemia RPMI-8226; details: RPMI-8226 (Leukemia), 10^−4 molar
Procedure, shortened: as §1

[30] = test system: COLO205; experiment: NCI screen, growth of human tumor cells: Colon Cancer COLO205
Procedure, shortened: as §1

[31] = test system: HOP-62; experiment: NCI screen, growth of human tumor cells: Non-Small Cell Lung HOP-62; details: HOP-62, 10^−4 molar
Procedure, shortened: as §1

[32] = test system: MDA-MB-231/ATCC; experiment: NCI screen, growth of human tumor cells: Breast Cancer MDA-MB-231/ATCC; details: MDA-MB-231/ATCC (Breast Cancer), 10^−4 molar
Procedure: as §2

[33] = test system: SN12C; experiment: NCI screen, growth of human tumor cells: Renal Cancer SN12C; details: SN12C (Renal Cancer), 10^−4 molar
Procedure, shortened: as §1

[34] = test system: MOLT-4; experiment: NCI screen, growth of human tumor cells: Leukemia MOLT-4; details: MOLT-4 (Leukemia), 10^−4 molar
Procedure, shortened: as §1

[35] = test system: NCI-H522; experiment: NCI screen, growth of human tumor cells: Non-Small Cell Lung NCI-H522
Procedure, shortened: as §1

[36] = test system: SNB-19; experiment: NCI screen, growth of human tumor cells: CNS Cancer SNB-19; details: SNB-19, 10^−4 molar
Procedure: as §2

[37] = test system: UO-31; experiment: NCI screen, growth of human tumor cells: Renal Cancer UO-31; details: UO-31 (Renal Cancer), 10^−4 molar
Procedure, shortened: as §1

[38] = test system: SK-MEL-28; experiment: NCI screen, growth of human tumor cells: Melanoma SK-MEL-28; details: SK-MEL-28 (Melanoma), 10^−4 molar
Procedure, shortened: as §1

[39] = test system: UACC-257; experiment: NCI screen, growth of human tumor cells: Melanoma UACC-257; details: UACC-257 (Melanoma), 10^−4 molar
Procedure, shortened: as §1

[40] = test system: NCI-H322M; experiment: NCI screen, growth of human tumor cells: Non-Small Cell Lung NCI-H322M; details: 10^−4 molar
Procedure: as §2

[41] = test system: TK-10; experiment: NCI screen, growth of human tumor cells: Renal Cancer TK-10; details: TK-10 (Renal Cancer), 10^−4 molar
Procedure: as §2

[42] = test system: IGROVI; experiment: NCI screen, growth of human tumor cells: Ovarian Cancer IGROVI; details: IGROVI
Procedure, shortened: as §1

[43] = test system: human cancer cells; experiment: NCI screen summary over the cancers tested (negative growth of human cancer cells); details: 10^−4 M conc.
Procedure: as §2
The derivatives in the tables are grouped using the same category as in the tables 1-6.

[44] = test system: HCT-15; experiment: NCI screen, growth of human tumor cells: Colon Cancer HCT-15; details: HCT-15 (Colon Cancer), 10^−4 molar
Procedure, shortened: as §1

[45] = test system: MCF7/ADR-RES; experiment: NCI screen, growth of human tumor cells: Breast Cancer MCF7/ADR-RES; details: MCF7/ADR-RES, 10^−4 molar
Procedure, shortened: as §1

In the case of “propane-1-[hydroxyhydrogensulfate]-3-(2-methylnaphthyl)-3,3-(ethylenedisulfonate) [NSC 693879]”, the “% Growth” value ([1]; 10^−4 molar) is reported as −49%, the “% Growth” value ([1]; 10^−5 molar) is reported as 55% and the “% Growth” value [2] is reported as −100%. The “% Growth” value [3] was −100%, the “% Growth” value ([4]; 10^−4 molar) was −100% and the “% Growth” value ([4]; 10^−5 molar) was 44%. For the same substance, the “% Growth” value ([4]; 10^−6 molar) was 62%, the “% Growth” value [5] was −86% and the “% Growth” value [6] was −100%. The “% Growth” value [7] was −65%, the “percent of growth of human tumor cells” value [8] was −40% and the “% Growth” value ([9]; SNB-75, 10^−4 molar) was −62%. The “% Growth” value ([9]; SNB-75, 10^−5 molar) was 55%, the “% Growth” value [10] was −100% and the “% Growth” value [11] was −90%. The “% Growth” value [12] was −99%, the “percent of growth of human tumor cells” value [13] was −35% and the “% Growth” value ([14]; 10^−4 molar) was −33%. The “% Growth” value ([14]; 10^−5 molar) was 52%, the “% Growth” value [15] was −100% and the “% Growth” value [16] was −66%. The “% Growth” value ([17]; SF-268, 10^−4 molar) was −56%, the “% Growth” value ([17]; SF-268, 10^−5 molar) was 59% and the “% Growth” value [18] was −87%. For the same substance, the “% Growth” value [19] was −62%, the “percent of growth of human tumor cells” value [20] was −34% and the “% Growth” value ([21]; SF-295, 10^−4 molar) was −82%. The “% Growth” value ([21]; SF-295, 10^−5 molar) was 58%, the “percent of growth of human tumor cells” value [22] was −58% and the “% Growth” value [23] was −79%. For the same substance, the “% Growth” value [24] was −78%, the “% Growth” value ([25]; 10^−4 molar) was −19% and the “% Growth” value ([25]; 10^−5 molar) was 13%. The “% Growth” value [26] was −100%, the “% Growth” value [27] was −92% and the “% Growth” value [28] was −100%. For the same substance, the “percent of growth of human tumor cells” value [29] was −28%, the “% Growth” value ([30]; COLO205, 10^−4 molar) was −73% and the “% Growth” value ([30]; COLO205, 10^−5 molar) was 57%. The “% Growth” value [31] was −65%, the “percent of growth of human tumor cells” value [32] was −54% and the “percent of growth of human tumor cells” value [33] was −57%. The “percent of growth of human tumor cells” value [34] was −16%, the “% Growth” value ([35]; NCI-H522, 10^−4 molar) was −100% and the “% Growth” value ([35]; NCI-H522, 10^−5 molar) was 35%. For the same substance, the “% Growth” value ([35]; NCI-H522, 10^−6 molar) was 63%, the “% Growth” value [36] was −72% and the “percent of growth of human tumor cells” value [37] was −48%. For the same substance, the “percent of growth of human tumor cells” value [38] was −5%, the “percent of growth of human tumor cells” value [39] was −32% and the “percent of growth of human tumor cells” value ([40]; NCI-H322M (Non-Small Cell Lung)) was −71%. For the same substance, the “% Growth” value ([40]; NCI-H322M) was −71%, the “percent of growth of human tumor cells” value [41] was −3% and the “% Growth” value ([42]; 10^−4 molar) was −89%. The “% Growth” value ([42]; 10^−5 molar) was 50%, the “% Growth” value ([42]; 10^−6 molar) was 60% and the “% Growth” value ([42]; 10^−7 molar) was 52%. For the same substance, the “percentage of cancers that had −100% growth” value [43] was 20%, the “Percentage of cancers showing negative growth cancers tested” value ([43]; cancers with negative growth / cancers tested) was 100% and the “percent of growth of human tumor cells” value [44] was −39%. For the same substance, the “% Growth” value [45] was −54%.
